# Assay results: US7390837B2, “Germicidal compositions containing phenylmalonaldehyde-type compounds, or mixtures of phenylmalonaldehyde-type compounds and phthalaldehydes, and methods of using such compositions for disinfection or sterilization” (Ethicon, Inc., priority 2004, dated 2008)
# How the values were obtained:
# [1] = test system: Mycobacterium terrae bacteria; test: bacterial suspension test; format: cell-based; settings: for Germicidal Efficacy: summary Table 14
# Method: The bacterial suspension test that was employed is described in Section VII.
# The solutions were prepared by adding the appropriate amounts of the germicidal compounds to an aqueous solution. Unless otherwise mentioned all concentrations reported herein are expressed in (w/v) %. The pH of the solution was not adjusted. The tests were conducted at a temperature of about 20° C. (room temperature). The results are presented in terms of log reductions/mL. It is understood that these examples, as well as the other examples herein, are to be construed as merely illustrative, and not limiting.
# In this test method, 9 mL of the germicide to be tested is placed in a tube, put into a water bath and allowed to come to the desired temperature. One mL of the test organism, including at least 7 logs/mL of Mycobacterium terrae bacteria, is added to the 9 mL of the germicide to be tested. […] It will be appreciated by those skilled in the art that other concentrations may be utilized by proper dilution and accounting.
# At appropriate time intervals, 1 mL aliquots of the germicide-cell suspension were removed and added directly into 9 mL of a 1% glycine solution (neutralizer) and mixed thoroughly to neutralize the germicide in the transferred suspension. The glycine solution was prepared from solid glycine, which is available from VWR Scientific Products, among others. The above-identified 10 mL neutralized solution was then poured through a membrane filter having an average pore size of 0.45 micrometers. The filter was then rinsed twice with at least 150 mL of the 1% glycine solution per rinse. The filter was then placed on an agar plate and incubated for twenty-one days at 37° C. In the above procedure, if dilution was needed, then the 1 mL germicidal-cell suspension was diluted in 99 mL of a phosphate buffer before addition to the 9 mL of the 1% glycine solution. The phosphate buffer was DiLu-LoK™ Butterfields Phosphate Buffer, available from Hardy Diagnostics, of Santa Maria, Calif.
# The surviving colonies are then counted. The data is plotted as S/So vs. time. So is the initial count of the bacteria in the above 10 mL solution which is at least 10^6 bacteria/mL, and S is the surviving bacteria from the above filter on the agar plate. The results of the experiments were presented in terms of log reductions. Log reduction is the difference between log(So) and log(S). As one example, if log(So)=6.2, and if there were 100 survivors, then the log(S)=2, and the log reduction was reported as 4.2.
# solubility in water = format: physicochemical
compound,measurement,setting,value
"O=Cc1ccccc1C=O [OPA, phthalaldehyde]",Germicidal Efficacy,[1],Good
same,solubility in water,solubility in water,about 5 % by weight
"O=Cc1cccc(C=O)c1 [IPA, isophthalaldehyde, reference compound]",Log Reductions/mL,"[1]; 0.3%, dissolved in 20% isopropanol, 20° C., 5 min (Table 11)",Confluent
same,Log Reductions/mL,"[1]; 0.3%, dissolved in 20% isopropanol, 20° C., 5 min (Table 11), listed as EPA",confluent
same,Log Reductions/mL,"[1]; 0.3%, dissolved in 20% isopropanol, 20° C., 5 min (Table 15)",Confluent
same,Germicidal Efficacy,[1],Poor
"O=CC(c1ccccc1)C(O)S(=O)(=O)[O-].[Na+] (centres unmarked) [1-hydroxy-3-oxo-2-phenyl-propane-1-sulfonic acid, sodium salt]",Log Reductions/mL,"[1]; 0.6%, 20° C., 60 min, sodium salt",Total Kill
same,Log Reductions/mL,"[1]; 2.5%, 20° C., 10 min, sodium salt",total kill
4-pyridinyl-propanedial,Log Reductions/mL,"[1]; Saturated (~2.3% w/v), 5 min, 20° C.",4.0 log reductions/mL
O=Cc1ccc(Br)cc1C=O [4-bromo-phthalaldehyde],Log Reductions/mL,"[1]; 0.1%, 20° C., exposure time 30 minutes",Total Kill
"O=Cc1ccc(C=O)cc1 [TPA, terephthalaldehyde, reference compound]",Log Reductions/mL,"[1]; 0.2%, dissolved in 20% isopropanol, 20° C., 5 min",Confluent
same,Germicidal Efficacy,[1],Poor
O=CC(C=O)c1ccccc1 [phenyl-propanedial],Log Reductions/mL,"[1]; 0.4%, 20° C., 60 min (Table 5)",Total Kill
same,Log Reductions/mL,"[1]; 0.44%, 20° C., 60 min (Table 15)",Total Kill
same,Log Reductions/mL,"[1]; 0.66%, 20° C., 15 min (Table 15)",Total Kill
same,Log Reductions/mL,"[1]; 0.7%, 20° C., 15 min (Table 5)",Total Kill
same,logs killed,"[1]; 1% solution, 5 minutes, 20° C.",more than 4 logs
same,Log Reductions/mL,"[1]; ~1%, 20° C., 5 min (Table 15)",4.5 log reductions/mL
same,solubility in water,solubility in water,about 1%
O=Cc1ccc(Cl)cc1C=O [4-chloro-phthalaldehyde],Log Reductions/mL,"[1]; 2.7 w/v % in 20% isopropanol, 20° C., 5 min",Total Kill
O=Cc1ccc(F)cc1C=O [4-fluoro-phthalaldehyde],Log Reductions/mL,"[1]; 0.25%, 20° C., exposure time 60 minutes",Total Kill
"O=Cc1ccccc1C(O)S(=O)(=O)[O-].[Na+] (centres unmarked) [(2-formyl-phenyl)-hydroxy-methane sulfonic acid, sodium salt]",Log Reductions/mL,"[1]; 9.1%, 20° C., 5 min, listed as (2-formyl-phenyl)-hydroxy-methane sulfonate, sodium salt",confluent
same,Log Reductions/mL,"[1]; 9.1%, 20° C., 5 min, listed as H-SULF, sodium salt",Confluent
